Results as given in PubChem BioAssay (NCI).
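These data come from cells grown in 96-well plates and exposed to compound for 48 hours at five concentrations. The concentration for full growth arrest is given as TGI.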

What was measured:
Assay in all cases: NCI tumour cell line growth inhibition, 48 h
HCT-116 colon = test system: HCT-116 colon
RXF 393 renal = test system: RXF 393 renal
SN12C renal = test system: SN12C renal
RPMI-8226 leukemia = test system: RPMI-8226 leukemia
SNB-75 CNS = test system: SNB-75 CNS
UO-31 renal = test system: UO-31 renal
EKVX NSCLC = test system: EKVX NSCLC
OVCAR-4 ovarian = test system: OVCAR-4 ovarian
KM12 colon = test system: KM12 colon
COLO 205 colon = test system: COLO 205 colon
SNB-19 CNS = test system: SNB-19 CNS
ACHN renal = test system: ACHN renal
SK-OV-3 ovarian = test system: SK-OV-3 ovarian
HL-60(TB) leukemia = test system: HL-60(TB) leukemia
DMS 273 small cell lung = test system: DMS 273 small cell lung
MALME-3M melanoma = test system: MALME-3M melanoma
XF 498 CNS = test system: XF 498 CNS
MOLT-4 leukemia = test system: MOLT-4 leukemia
DMS 114 small cell lung = test system: DMS 114 small cell lung
U251 CNS = test system: U251 CNS
LXFL 529 NSCLC = test system: LXFL 529 NSCLC
SF-295 CNS = test system: SF-295 CNS
TK-10 renal = test system: TK-10 renal
NCI-H460 lung = test system: NCI-H460 lung
UACC-257 melanoma = test system: UACC-257 melanoma
SF-268 CNS = test system: SF-268 CNS
SK-MEL-28 melanoma = test system: SK-MEL-28 melanoma
786-0 renal = test system: 786-0 renal
NCI-H23 lung = test system: NCI-H23 lung
NCI-H226 lung = test system: NCI-H226 lung
HT29 colon = test system: HT29 colon
M19-MEL melanoma = test system: M19-MEL melanoma
SNB-78 CNS = test system: SNB-78 CNS
SK-MEL-2 melanoma = test system: SK-MEL-2 melanoma
KM20L2 colon = test system: KM20L2 colon
SR leukemia = test system: SR leukemia
HOP-62 NSCLC = test system: HOP-62 NSCLC
HOP-18 NSCLC = test system: HOP-18 NSCLC
SK-MEL-5 melanoma = test system: SK-MEL-5 melanoma
M14 melanoma = test system: M14 melanoma
CCRF-CEM leukemia = test system: CCRF-CEM leukemia
OVCAR-8 ovarian = test system: OVCAR-8 ovarian
SW-620 colon = test system: SW-620 colon
UACC-62 melanoma = test system: UACC-62 melanoma
LOX IMVI melanoma = test system: LOX IMVI melanoma
A549 NSCLC = test system: A549 NSCLC
HCT-15 colon = test system: HCT-15 colon
K-562 leukemia = test system: K-562 leukemia
T-47D breast = test system: T-47D breast
HCC-2998 colon = test system: HCC-2998 colon
NCI-H522 lung = test system: NCI-H522 lung
DLD-1 colon = test system: DLD-1 colon
MDA-MB-231 breast = test system: MDA-MB-231 breast
PC-3 prostate = test system: PC-3 prostate
HS 578T breast = test system: HS 578T breast
IGROV1 ovarian = test system: IGROV1 ovarian
HOP-92 NSCLC = test system: HOP-92 NSCLC
A498 renal = test system: A498 renal
RXF-631 renal = test system: RXF-631 renal
OVCAR-3 ovarian = test system: OVCAR-3 ovarian
DU-145 prostate = test system: DU-145 prostate
MDA-N = test system: MDA-N
MDA-MB-435 = test system: MDA-MB-435
OVCAR-5 ovarian = test system: OVCAR-5 ovarian
SF-539 CNS = test system: SF-539 CNS
NCI/ADR-RES ovarian = test system: NCI/ADR-RES ovarian
MCF7 breast = test system: MCF7 breast
BT-549 breast = test system: BT-549 breast
CAKI-1 renal = test system: CAKI-1 renal

Cc1ccccc1NC(=O)CSc1nnc(-c2ccc(N=Cc3ccc(Cl)cc3)cc2)o1
TGI (HCT-116 colon): > 100 µM | TGI (RXF 393 renal): > 100 µM | TGI (SN12C renal): > 100 µM | TGI (RPMI-8226 leukemia): > 100 µM | TGI (SNB-75 CNS): > 100 µM | TGI (UO-31 renal): > 100 µM | TGI (EKVX NSCLC): > 100 µM | TGI (OVCAR-4 ovarian): > 100 µM | TGI (KM12 colon): > 100 µM | TGI (COLO 205 colon): > 100 µM | TGI (SNB-19 CNS): > 100 µM | TGI (ACHN renal): > 100 µM | TGI (SK-OV-3 ovarian): > 100 µM | TGI (HL-60(TB) leukemia): > 100 µM | TGI (DMS 273 small cell lung): > 100 µM | TGI (MALME-3M melanoma): > 100 µM | TGI (XF 498 CNS): > 100 µM | TGI (MOLT-4 leukemia): > 100 µM | TGI (DMS 114 small cell lung): > 100 µM | TGI (U251 CNS): > 100 µM | TGI (LXFL 529 NSCLC): > 100 µM | TGI (SF-295 CNS): > 100 µM | TGI (TK-10 renal): > 100 µM | TGI (NCI-H460 lung): > 100 µM | TGI (UACC-257 melanoma): > 100 µM | TGI (SF-268 CNS): > 100 µM | TGI (SK-MEL-28 melanoma): > 100 µM | TGI (786-0 renal): > 100 µM | TGI (NCI-H23 lung): > 100 µM | TGI (NCI-H226 lung): > 100 µM | TGI (HT29 colon): > 100 µM | TGI (M19-MEL melanoma): > 100 µM | TGI (SNB-78 CNS): > 100 µM | TGI (SK-MEL-2 melanoma): > 100 µM | TGI (KM20L2 colon): > 100 µM | TGI (SR leukemia): > 100 µM | TGI (HOP-62 NSCLC): > 100 µM | TGI (HOP-18 NSCLC): > 100 µM | TGI (SK-MEL-5 melanoma): > 100 µM | TGI (M14 melanoma): > 100 µM | TGI (CCRF-CEM leukemia): > 100 µM | TGI (OVCAR-8 ovarian): > 100 µM | TGI (SW-620 colon): > 100 µM | TGI (UACC-62 melanoma): > 100 µM | TGI (LOX IMVI melanoma): > 100 µM | TGI (A549 NSCLC): > 100 µM | TGI (HCT-15 colon): > 100 µM | TGI (K-562 leukemia): > 100 µM

Clc1ccc2c(NCCCCCCNc3ccnc4cc(Cl)ccc34)ccnc2c1
TGI (HCT-116 colon): 3.85 µM | TGI (RXF 393 renal): 6.35 µM | TGI (SN12C renal): 16.6 µM | TGI (RPMI-8226 leukemia): 6.53 µM | TGI (SNB-75 CNS): 8.61 µM | TGI (UO-31 renal): 10.6 µM | TGI (EKVX NSCLC): 25.9 µM | TGI (T-47D breast): 5.42 µM | TGI (OVCAR-4 ovarian): 5.93 µM | TGI (KM12 colon): 7.88 µM | TGI (HCC-2998 colon): 3.32 µM | TGI (COLO 205 colon): 4.62 µM | TGI (NCI-H522 lung): 3.19 µM | TGI (SNB-19 CNS): 13.5 µM | TGI (ACHN renal): 8.91 µM | TGI (DLD-1 colon): 10.3 µM | TGI (SK-OV-3 ovarian): 17.5 µM | TGI (HL-60(TB) leukemia): 4.7 µM | TGI (MDA-MB-231 breast): 10.2 µM | TGI (DMS 273 small cell lung): 11.7 µM | TGI (MALME-3M melanoma): 32.6 µM | TGI (PC-3 prostate): 18.1 µM | TGI (XF 498 CNS): 2.96 µM | TGI (MOLT-4 leukemia): 8.09 µM | TGI (DMS 114 small cell lung): 3.34 µM | TGI (HS 578T breast): > 48.8 µM | TGI (U251 CNS): 5.82 µM | TGI (LXFL 529 NSCLC): 7.3 µM | TGI (SF-295 CNS): 5.56 µM | TGI (TK-10 renal): 18.2 µM | TGI (NCI-H460 lung): 6.3 µM | TGI (IGROV1 ovarian): 14.5 µM | TGI (UACC-257 melanoma): 14.6 µM | TGI (SF-268 CNS): 24.8 µM | TGI (HOP-92 NSCLC): 5.8 µM | TGI (SK-MEL-28 melanoma): 9.78 µM | TGI (786-0 renal): 4.15 µM | TGI (NCI-H23 lung): 31.5 µM | TGI (NCI-H226 lung): 25.3 µM | TGI (A498 renal): 42.3 µM | TGI (HT29 colon): 4.44 µM | TGI (RXF-631 renal): 6.02 µM | TGI (M19-MEL melanoma): 8.83 µM | TGI (OVCAR-3 ovarian): 3.77 µM | TGI (SNB-78 CNS): 3.87 µM | TGI (DU-145 prostate): 14.1 µM | TGI (SK-MEL-2 melanoma): 12.7 µM | TGI (KM20L2 colon): 4.39 µM | TGI (MDA-N): 8.86 µM | TGI (SR leukemia): 19.3 µM | TGI (HOP-62 NSCLC): 13.8 µM | TGI (MDA-MB-435): 12.5 µM | TGI (SK-MEL-5 melanoma): 10.9 µM | TGI (M14 melanoma): 3.51 µM | TGI (OVCAR-5 ovarian): 17.9 µM | TGI (CCRF-CEM leukemia): 7.53 µM | TGI (OVCAR-8 ovarian): 4.9 µM | TGI (SF-539 CNS): 3.6 µM | TGI (SW-620 colon): 3.78 µM | TGI (UACC-62 melanoma): 8.66 µM | TGI (NCI/ADR-RES ovarian): 27.9 µM | TGI (LOX IMVI melanoma): 3.35 µM | TGI (A549 NSCLC): 20.7 µM | TGI (HCT-15 colon): 8.08 µM | TGI (MCF7 breast): 7.27 µM | TGI (K-562 leukemia): 4.98 µM | TGI (BT-549 breast): 27.5 µM | TGI (CAKI-1 renal): 24.1 µM

O=c1[nH]ccc(CNC23CC4CC(CC(C4)C2)C3)c1O
TGI (HCT-116 colon): > 100 µM | TGI (RXF 393 renal): > 100 µM | TGI (SN12C renal): > 100 µM | TGI (RPMI-8226 leukemia): > 100 µM | TGI (SNB-75 CNS): > 100 µM | TGI (UO-31 renal): > 100 µM | TGI (EKVX NSCLC): > 100 µM | TGI (OVCAR-4 ovarian): > 100 µM | TGI (KM12 colon): > 100 µM | TGI (HCC-2998 colon): > 100 µM | TGI (COLO 205 colon): > 100 µM | TGI (NCI-H522 lung): 52.7 µM | TGI (SNB-19 CNS): > 100 µM | TGI (ACHN renal): > 100 µM | TGI (DLD-1 colon): > 100 µM | TGI (SK-OV-3 ovarian): > 100 µM | TGI (HL-60(TB) leukemia): > 100 µM | TGI (DMS 273 small cell lung): > 100 µM | TGI (MALME-3M melanoma): > 100 µM | TGI (XF 498 CNS): > 100 µM | TGI (MOLT-4 leukemia): > 100 µM | TGI (U251 CNS): > 100 µM | TGI (LXFL 529 NSCLC): > 100 µM | TGI (SF-295 CNS): > 100 µM | TGI (TK-10 renal): > 100 µM | TGI (NCI-H460 lung): > 100 µM | TGI (IGROV1 ovarian): > 100 µM | TGI (UACC-257 melanoma): > 100 µM | TGI (786-0 renal): > 100 µM | TGI (NCI-H23 lung): > 100 µM | TGI (NCI-H226 lung): > 100 µM | TGI (A498 renal): > 100 µM | TGI (HT29 colon): > 100 µM | TGI (M19-MEL melanoma): > 100 µM | TGI (OVCAR-3 ovarian): > 100 µM | TGI (SNB-78 CNS): > 100 µM | TGI (SK-MEL-2 melanoma): > 100 µM | TGI (KM20L2 colon): > 100 µM | TGI (SR leukemia): > 100 µM | TGI (HOP-62 NSCLC): > 100 µM | TGI (HOP-18 NSCLC): > 100 µM | TGI (SK-MEL-5 melanoma): > 100 µM | TGI (M14 melanoma): > 100 µM | TGI (OVCAR-5 ovarian): > 100 µM | TGI (CCRF-CEM leukemia): > 100 µM | TGI (OVCAR-8 ovarian): > 100 µM | TGI (SF-539 CNS): > 100 µM | TGI (SW-620 colon): > 100 µM | TGI (UACC-62 melanoma): > 100 µM | TGI (A549 NSCLC): > 100 µM | TGI (HCT-15 colon): > 100 µM | TGI (K-562 leukemia): > 100 µM | TGI (CAKI-1 renal): > 100 µM
